In PMC10301333, “The C-Terminus of Panusin, a Lobster β-Defensin, Is Crucial for Optimal Antimicrobial Activity and Serum Stability” (Pharmaceutics, 2023):
≈ marks a conversion by molar mass, not a printed value. Read-outs that look alike come from different tables or passages of the source. Bridge positions count the residues as written; N and C are the ends. Peptide text beside a SMILES is read from it.

Key:
[1] = tested on: horse red blood cells; assay: Hemolytic activity (hemoglobin release)
Procedure: Both peptides were tested for hemolytic activity on horse red blood cells (RBCs), as described earlier. Briefly, fresh RBCs in PBS (pH 7.4) were first centrifuged 3 × 1500× g for 5 min, then diluted 1:10 with PBS to yield an RBC concentration of ~5 × 10^8 cells/mL. RBCs were then incubated for 1 h at 37 °C with 2-fold serial dilutions of PaD or Ct_PaD covering a 0.24–250 μM concentration range. Next, 0.1% TritonX100 and PBS were used as positive and negative controls, respectively. After incubation, samples were centrifuged at 1500× g for 10 min at room temperature and the supernatant (60 μL) was transferred to a flat-bottomed 96-well polypropylene microplate (Greiner, Frickenhausen, Germany). Hemoglobin release was then measured as OD at 540 nm in a VICTOR3 microplate reader (Perkin Elmer, Waltham, MA, USA). Percent hemolysis was calculated as indicated below (Equation (1)).

[2] = MTT cytotoxicity assay; format: cell-based; settings: human
Procedure: MRC-5 cells were cultured in Eagle’s minimum essential medium (MEMα), supplemented with 10% (v/v) fetal bovine serum (FBS) and a 1% penicillin (100 IU/mL)/streptomycin (100 μg/mL) solution, and maintained at 37 °C in a humidified atmosphere with 5% CO2. After cells were grown, they were seeded into 96-well plates at 3 × 10^4 cells/well and cultured overnight to adhere to the plate. Subsequently, adherent cells were incubated for 4 h under standard conditions (5% CO2, 37 °C) with 2-fold serial dilutions of each peptide in a 1.56–200 μM concentration range. Following incubation, the peptide-containing medium was replaced with MEM supplemented with FBS and 3-(4,5-dimethylthiazol-2-yl)-2,5 diphenyltetrazolium bromide (MTT) at 0.4 mg/mL, and the cells were further incubated for 120 min. Formazan crystals in live cells were detected after disruption with 200 μL of DMSO by OD measurement at 570 nm in a Tecan microplate reader. […] Data are the average of three independent replicates.

[3] = Analytical RP-HPLC retention time as measure of hydrophobic character; format: physicochemical; settings: chromatographic, Luna C18 4.6 × 50 mm, 3 µm; 10 to 50 linear gradient of MeCN (0.036% TFA) into H2O (0.045% TFA) over 15 min, 1 mL/min, UV 220 nm; used as indicator of hydrophobic character
Procedure: Analytical RP-HPLC was performed on an LC-2010 instrument (Shimadzu, Kyoto, Japan) using a Luna C18 column (4.6 × 50 mm, 3 µm; Phenomenex, Torrance, CA, USA), eluted with linear gradients of solvent B (0.036% TFA in MeCN) into solvent A (0.045% TFA in H2O) over 15 min at a 1 mL/min flow rate, with UV detection at 220 nm.
The HPLC retention times of PaD and Ct_PaD reflect some differences in hydrophobic character. […] Such differences in hydrophobicity might influence both antimicrobial and cytotoxic activity, which were therefore assessed next.
Supplementary Materials: The C-terminus of Panusin, a Lobster β-defensin, Is Crucial for Optimal Antimicrobial
Activity and Serum Stability
Roberto Bello-Madruga, Javier Valle, M. Ángeles Jiménez, Marc Torrent, Vivian Montero-Alejoand David Andreu
1. Synthetic Peptide Characterization
Table S1. Peptide Analytical Data.
1 Theoretical Experimental HPLC Retention Purity
Peptide Mass (Da) Mass (Da)2 Time (min)3 (HPLC, %)4
1 All peptides are C-terminal carboxamides; 2 Determined by LC-MS, 3 Elution was carried out with a 10 to 50 linear gradient over 15 min; 4 Determined by analytical HPLC.
Figure S1. RP-HPLC elution profile of purified peptides. […]

[4] = tested on: Acinetobacter baumannii; settings: for MBC: 24 h
Procedure: (§1) Antimicrobial activities of both PaD and Ct_PaD were determined in a modified microdilution assay as described previously for other β-defensins such as peptides. The assay was performed in sterile polypropylene 96-well plates that prevent peptide binding (Greiner, Frickenhausen, Germany). From a bacterial isolate, a single colony was seeded in Mueller Hinton Broth (MHB, Condalab, Torrejón de Ardoz, Spain) and allowed to grow at 37 °C in an incubator with orbital shaking at 250 rpm overnight. Subsequently, a new bacterial culture was seeded from the overnight culture and allowed to grow to an OD of 0.5 at 600 nm. The bacterial suspension was diluted to a final concentration of 5 × 10^5 CFU (colony formation unit)/mL in sterile 10 mM phosphate buffer (PB: 2.46 mM NaH2PO4, 7.5 mM Na2HPO4, pH 7.4), used as the working culture. Next, 50 μL of 2-fold serial dilutions of each peptide in PB were placed on the plates to provide a final 0.097–100 µM concentration range after which 50 μL of working culture was applied to each well. The plate was first incubated for 2 h at 37 °C, then 100 μL of MHB 2× was added to each well and was incubated at 37 °C overnight with shaking. The growth of bacteria was measured by the optical density at 600 nm in a microplate reader (Tecan, Männedorf, Switzerland). The minimum inhibitory concentration (MIC) was defined as the minimum peptide concentration in which the microorganism is unable to grow. The results are the average of three independent studies. […] MBC was defined for each peptide as the lowest concentration with no bacterial growth detected.

[5] = tested on: Enterococcus faecium; settings: for MBC: 24 h
Procedure: as §1

[6] = tested on: Escherichia coli; settings: for MBC: 24 h
Procedure: as §1

[7] = tested on: Micrococcus luteus; settings: for MBC: 24 h
Procedure: as §1

[8] = tested on: Pseudomonas aeruginosa; settings: for MBC: 24 h
Procedure: as §1

[9] = tested on: Staphylococcus aureus; settings: for MBC: 24 h
Procedure: as §1

[10] = tested on: human erythrocytes; settings: natural panusin; cited from earlier work
Description: Panusin, isolated from hemocytes of the spiny lobster Panulirus argus (PaD), is representative of those invertebrate peptides, which are related to mammalian β-defensins. PaD is comprised of 39 amino acid residues that fold into a well-described cysteine-stabilized αβ (CSαβ) motif, consisting of an α-helix and three antiparallel […]. These […] are strongly stabilized by three disulfide bonds. […] These properties mark it a ...

[11] = in vitro; settings: human, human serum (50% v/v in water), t1/2 values, proteolysis in human serum, 37 °C, 24 h incubation
Procedure: Peptide samples (500 μL, 500 μM in H2O) were mixed and incubated with 500 μL of human serum (Sigma-Aldrich, St. Louis, MO, USA) for 24 h at 37 °C. Aliquots (120 μL) were taken at 0, 30, 120, 360, 720, and 1440 min and treated with 20 μL of trichloroacetic acid (15% (v/v) in H2O). The suspension was centrifuged for 30 min at 13,000 rpm, 4 °C, and the supernatant was analyzed by RP-HPLC as described above. The unaltered peptide was determined by RP-HPLC peak integration, expressed as the percent of the amount at t0, and data were fitted to a one-phase exponential decay model using GraphPad Prism 8.01 to estimate half-life time (t1/2). Results are the average of three independent runs.

## CC(C)C[C@@H]1NC(=O)[C@H](CCCNC(=N)N)NC(=O)[C@H](CC(N)=O)NC(=O)CNC(=O)[C@H](Cc2ccc(O)cc2)NC(=O)[C@@H]2CCCN2C(=O)[C@@H](NC(=O)[C@@H](N)Cc2ccc(O)cc2)CSSC[C@@H](C(=O)N[C@@H](CCCNC(=N)N)C(=O)N[C@@H](CCCNC(=N)N)C(=O)N[C@@H](CO)C(=O)N[C@@H](Cc2ccc(O)cc2)C(N)=O)NC(=O)[C@@H]2CSSC[C@H](NC(=O)[C@H](Cc3ccccc3)NC(=O)[C@H](Cc3ccc(O)cc3)NC(=O)[C@H](CC(N)=O)NC1=O)C(=O)N1CCC[C@H]1C(=O)N[C@@H](CC(C)C)C(=O)NCC(=O)N[C@@H](CCCNC(=N)N)C(=O)N[C@@H]([C@@H](C)O)C(=O)N2 [Ct_PaD] (H-YCPYGNRLNYFCPLGRTCCRRSY-NH2; disulfide 2-19, 12-18; N-terminus assumed)
[1]; horse red blood cell lysis, tested up to 250 μM, hemoglobin release at 540 nm
  Hemolytic activity (result in words): absence of hemolytic activity
[2]; MRC-5 cells, 4 h peptide incubation, 1.56–200 μM, MTT, OD 570 nm, average of three independent replicates, read-out: MRC-5 cytotoxicity (IC50)
  IC50 at 4 h: 175 ± 1.5 µM
[3]
  HPLC Retention Time: 6.65 min

## CC[C@H](C)[C@H](NC(=O)[C@H](CCCCN)NC(=O)[C@H](CCC(=O)O)NC(=O)[C@H](CCCCN)NC(=O)[C@H](CO)NC(=O)[C@H](CCCCN)NC(=O)[C@H](CCCNC(=N)N)NC(=O)[C@H](Cc1ccccc1)NC(=O)[C@H](Cc1ccccc1)NC(=O)[C@H](CC(=O)O)NC(=O)CNC(=O)[C@H](CC(C)C)NC(=O)[C@@H](N)CC(C)C)C(=O)NCC(=O)N[C@@H](CCCCN)C(=O)N[C@@H](CCC(=O)O)C(=O)N[C@@H](Cc1ccccc1)C(=O)N[C@@H](CCCCN)C(=O)N[C@@H](CCCNC(=N)N)C(=O)N[C@H](C(=O)N[C@H](C(=O)N[C@@H](CCC(N)=O)C(=O)N[C@@H](CCCNC(=N)N)C(=O)N[C@H](C(=O)N[C@@H](CCCCN)C(=O)N[C@@H](CC(=O)O)C(=O)N[C@@H](Cc1ccccc1)C(=O)N[C@@H](CC(C)C)C(=O)N[C@@H](CCCNC(=N)N)C(=O)N[C@@H](CC(N)=O)C(=O)N[C@@H](CC(C)C)C(=O)N[C@H](C(=O)N1CCC[C@H]1C(=O)N[C@@H](CCCNC(=N)N)C(=O)N[C@H](C(=O)N[C@@H](CCC(=O)O)C(=O)N[C@@H](CO)C(=O)O)[C@@H](C)O)C(C)C)[C@@H](C)CC)C(C)C)[C@@H](C)CC [LL-37, reference compound]
[4]; A. baumannii ATCC 15308, 10 mM phosphate buffer pH 7.4, 2 h at 37 °C, then MHB overnight, OD 600 nm, average of three independent studies
  MIC: 6.3 µM (≈ 28.3 µg/mL)
[4]; A. baumannii ATCC 15308, plated, 37 °C, lowest concentration with no bacterial growth
  MBC: 6.3 µM (≈ 28.3 µg/mL)
[5]; E. faecium ATCC 19434, 10 mM phosphate buffer pH 7.4, 2 h at 37 °C, then MHB overnight, OD 600 nm, average of three independent studies
  MIC: 1.6 µM (≈ 7.19 µg/mL)
[5]; E. faecium ATCC 19434, plated, 37 °C, lowest concentration with no bacterial growth
  MBC: 3.1 µM (≈ 13.9 µg/mL)
[6]; E. coli BW25113, 5 × 10^5 CFU/mL in 10 mM phosphate buffer pH 7.4, 2 h at 37 °C, then MHB overnight, OD 600 nm, average of three independent studies
  MIC: 1.6 µM (≈ 7.19 µg/mL)
[6]; E. coli BW25113, 50 μL of wells seeded into Petri plates, 37 °C, lowest concentration with no bacterial growth
  MBC: 3.1 µM (≈ 13.9 µg/mL)
[7]; M. luteus ATCC 15,307, 10 mM phosphate buffer pH 7.4, 2 h at 37 °C, then MHB overnight, OD 600 nm, average of three independent studies
  MIC: 1.6 µM (≈ 7.19 µg/mL)
[7]; M. luteus ATCC 15,307, plated, 37 °C, lowest concentration with no bacterial growth
  MBC: 3.1 µM (≈ 13.9 µg/mL)
[8]; P. aeruginosa ATCC 15692, 10 mM phosphate buffer pH 7.4, 2 h at 37 °C, then MHB overnight, OD 600 nm, average of three independent studies
  MIC: 1.6 µM (≈ 7.19 µg/mL)
[8]; P. aeruginosa ATCC 15692, plated, 37 °C, lowest concentration with no bacterial growth
  MBC: 1.6 µM (≈ 7.19 µg/mL)
[9]; S. aureus ATCC 12600, 10 mM phosphate buffer pH 7.4, 2 h at 37 °C, then MHB overnight, OD 600 nm, average of three independent studies
  MIC: 25 µM (≈ 112 µg/mL)
[9]; S. aureus ATCC 12600, plated, 37 °C, lowest concentration with no bacterial growth
  MBC: 25 µM (≈ 112 µg/mL)
[1]; horse RBCs ~5 × 10^8 cells/mL in PBS pH 7.4, 1 h, 37 °C, 250 µM peptide, OD 540 nm, vs 0.1% TritonX100, average of three independent replicates
  Hemolysis % (250 µM peptide): 17.5 ± 0.3%

## CC(C)C[C@@H]1NC(=O)[C@H](CCCNC(=N)N)NC(=O)[C@H](CC(N)=O)NC(=O)CNC(=O)[C@H](Cc2ccc(O)cc2)NC(=O)[C@@H]2CCCN2C(=O)[C@@H]2CSSC[C@@H](C(=O)N[C@@H](CCCNC(=N)N)C(=O)N[C@@H](CCCNC(=N)N)C(=O)N[C@@H](CO)C(=O)N[C@@H](Cc3ccc(O)cc3)C(N)=O)NC(=O)[C@@H]3CSSC[C@H](NC(=O)[C@H](CC(=O)O)NC(=O)CNC(=O)[C@@H](NC(=O)[C@H](Cc4ccc(O)cc4)NC(=O)[C@@H](N)CO)C(C)C)C(=O)NCC(=O)N[C@@H](CO)C(=O)N[C@@H](CC(N)=O)C(=O)NCC(=O)NCC(=O)N[C@@H](CO)C(=O)N[C@@H](CSSC[C@H](NC(=O)[C@H](Cc4ccccc4)NC(=O)[C@H](Cc4ccc(O)cc4)NC(=O)[C@H](CC(N)=O)NC1=O)C(=O)N1CCC[C@H]1C(=O)N[C@@H](CC(C)C)C(=O)NCC(=O)N[C@@H](CCCNC(=N)N)C(=O)N[C@@H]([C@@H](C)O)C(=O)N3)C(=O)N[C@@H](C(C)C)C(=O)N[C@@H](CO)C(=O)N[C@@H](CO)C(=O)N[C@@H](Cc1ccc(O)cc1)C(=O)N2 [PaD] (H-SYVGDCGSNGGSCVSSYCPYGNRLNYFCPLGRTCCRRSY-NH2; disulfide 6-34, 13-28, 18-35)
[4]; 2 h, pH 7.4
  MIC: 25 µM (≈ 106 µg/mL)
[4]
  MBC: 25 µM (≈ 106 µg/mL)
[5]; 2 h, pH 7.4
  MIC: 25 µM (≈ 106 µg/mL)
[5]
  MBC: 25 µM (≈ 106 µg/mL)
[6]; 2 h, pH 7.4
  MIC: 12.5 µM (≈ 53.2 µg/mL)
[6]
  MBC: 12.5 µM (≈ 53.2 µg/mL)
[7]; 2 h, pH 7.4
  MIC: 12.5 µM (≈ 53.2 µg/mL)
[7]
  MBC: 12.5 µM (≈ 53.2 µg/mL)
[8]; 2 h, pH 7.4
  MIC: 25 µM (≈ 106 µg/mL)
[8]
  MBC: 25 µM (≈ 106 µg/mL)
[9]; 2 h, pH 7.4
  MIC: 25 µM (≈ 106 µg/mL)
[9]
  MBC: 25 µM (≈ 106 µg/mL)
[1]; pH 7.4
  Hemolysis % (250 µM peptide): 0.6 ± 0.02%
[2]
  IC50 at 4 h: 145 ± 1.7 µM
[10]
  Hemolytic effect on human erythrocytes: no hemolytic effect
[11]
  half-life at 250 µM: > 24 h
